Reference: the NIST ThermoML archive (doi:10.1021/acs.jced.8b00977)
± gives the expanded uncertainty stated by the source.

Tests used:
[1] = Molar enthalpy of transition or fusion; conditions: Crystal; DSC
[2] = Crystal; DSC

Molar enthalpy of transition or fusion [1]: 17 ± 0.884 kcal/mol
Triple point temperature [2]: 468.87 ± 1 K
Compound: CC(=O)CC(c1ccccc1)c1c([O-])c2ccccc2oc1=O.[Na+] (configuration not stated) [warfarin sodium]
